From patent US20240391940A1, “FUSED RING-CONTAINING COMPOUND, APPLICATION THEREOF, AND COMPOSITION CONTAINING SAME” (GenEros Biopharma Ltd., priority 2020, published 2024)
Where two headings read alike, the source gives them in different places.

Columns and labels:
hERG = molecular target: T1, hERG (Homo sapiens, UniProt Q12809); test: hERG ion channel inhibition, automated QPatch on CHO cells expressing hERG; format: cell-based; details: human, CHO cells stably expressing hERG channels
T1 construct: expressed in transfected cells; host or cells: CHO cells, stably transfected
T1 sequence (Q12809 whole entry): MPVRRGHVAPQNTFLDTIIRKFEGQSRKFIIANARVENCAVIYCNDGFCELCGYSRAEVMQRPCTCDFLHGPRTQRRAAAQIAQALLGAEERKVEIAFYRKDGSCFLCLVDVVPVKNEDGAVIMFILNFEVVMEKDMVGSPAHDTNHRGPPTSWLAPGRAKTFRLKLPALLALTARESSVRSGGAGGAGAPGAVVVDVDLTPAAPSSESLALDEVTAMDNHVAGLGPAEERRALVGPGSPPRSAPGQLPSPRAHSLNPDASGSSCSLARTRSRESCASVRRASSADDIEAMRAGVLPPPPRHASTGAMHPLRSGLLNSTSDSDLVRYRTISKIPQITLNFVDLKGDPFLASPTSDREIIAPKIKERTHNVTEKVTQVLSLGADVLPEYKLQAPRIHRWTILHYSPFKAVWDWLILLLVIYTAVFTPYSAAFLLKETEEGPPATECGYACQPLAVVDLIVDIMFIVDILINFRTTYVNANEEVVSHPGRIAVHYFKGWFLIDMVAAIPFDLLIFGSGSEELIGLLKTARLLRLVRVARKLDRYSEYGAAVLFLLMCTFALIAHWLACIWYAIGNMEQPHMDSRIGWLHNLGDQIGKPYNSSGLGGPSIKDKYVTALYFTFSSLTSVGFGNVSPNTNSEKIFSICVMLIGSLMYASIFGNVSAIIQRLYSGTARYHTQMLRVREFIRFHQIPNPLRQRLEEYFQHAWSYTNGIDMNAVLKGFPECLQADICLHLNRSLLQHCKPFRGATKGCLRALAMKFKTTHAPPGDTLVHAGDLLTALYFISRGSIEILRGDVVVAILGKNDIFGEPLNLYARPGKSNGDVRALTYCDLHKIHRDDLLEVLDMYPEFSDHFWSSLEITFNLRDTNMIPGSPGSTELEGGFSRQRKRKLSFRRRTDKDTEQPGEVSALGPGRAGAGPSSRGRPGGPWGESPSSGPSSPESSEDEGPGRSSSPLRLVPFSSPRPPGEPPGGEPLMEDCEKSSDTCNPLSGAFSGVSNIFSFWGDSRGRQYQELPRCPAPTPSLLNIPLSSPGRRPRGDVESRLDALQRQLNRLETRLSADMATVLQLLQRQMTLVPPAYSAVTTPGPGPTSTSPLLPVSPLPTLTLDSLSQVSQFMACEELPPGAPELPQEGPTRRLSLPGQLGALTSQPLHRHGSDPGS
Description: (§1) A CHO cell line stably transfected with cDNA and expressing hERG channels of P15 was used for the study.
(§2) Cells were maintained in Petri dishes or flasks at 37° C. in a humidified incubator with 5% CO2 and cultured in a medium containing Ham's F12, 10% (v/v) heat-inactivated FBS, 100 μg/mL hygromycin B and 100 μg/mL geneticin (from Invitrogen). The cells were allowed to grow and reach a confluency of about 80-90% under the above conditions. Before the experiment, the cells were treated with Detachin (from Genlantis) for 3-5 min, at 37° C., then gently mixed well with medium at room temperature, and titrated 15-20 times with a pipette. Then the cells were resuspended in a serum-free medium containing CHO—S-SFM II medium (from Invitrogen) buffered with HEPES (25 mM). The cells used in QPatch study must meet the following criteria: under microscopy examination, the majority of cells in suspension should be single and isolated; their viability should be greater than 95%, with only a small amount of debris and cell clumps (which may clog the holes in QPlate during whole-cell clamp recording); the cell density should be within the range of 3-8×10^6 cells/mL in the final suspension before application to the QPatch stir chamber. Cells under such conditions can be used for recording only within four hours of being harvested.
(§3) Data acquisition was performed using automated QPatch (Sophion Biosciences, Denmark). The cells were voltage-clamped at a holding potential of −80 mV. The hERG current was activated by depolarization at +20 mV for 5 s, after which the current was activated back to −50 mV for 2.5 s to remove the inactivation and observe the outward tail current. The maximum amount of tail current was used to determine hERG current amplitude.
(§4) Six doses (30, 10, 3, 1, 0.3 and 0.1 μM) were selected to obtain a fitted curve and IC^50. The compound was prepared into serial dilutions in 3, 1, 0.3 and 0.1 mM DMSO vehicle to the final M ranges before the QPatch test. 5-10 minutes' ultrasonication and vortexing were generally used for solution to help completely dissolve the compound. The final DMSO concentration was 0.1% or lower, except that for the 30 μM point, the DMSO concentration was about 0.3%.
(§5) After achieving break-in (whole-cell) configuration, the cells were recorded for 120 s to assess current stability. The voltage settings described above were then applied to the cells once every 15 s throughout the whole process. Only stable cells with recording parameters above threshold were allowed to enter the drug assessment procedure. All the experiments were conducted at room temperature (about 25° C.).
(§6) An external solution containing 0.1% DMSO (vehicle) was applied to the cells to establish a baseline. After allowing the current to stabilize for 3 min, the compound was added. The compound solution was added and the cells were kept in the test solution until the effect of the compound reached a steady state or for a maximum of 4 min. For dose response assays, the compound was applied cumulatively to the cells from low to high concentrations. Washing with external solution was performed after compound testing. The positive control cisapride was used in the experiments to test the same batch of cells used for test compounds to ensure the normal response and the good quality of the cells.

hERG ion channel = molecular target: T2, hERG ion channel (Homo sapiens, UniProt Q12809); test: as above; format: cell-based; details: for Inhibitory activity against hERG (conclusion): 0.1-30 μM; for inhibition at 0.3 µM / inhibition at 1 µM / inhibition at 3 µM: human, CHO cells stably expressing hERG channels
T2 construct: expressed in transfected cells; host or cells: CHO cells, stably transfected
T2 sequence (Q12809 whole entry): as above
Description: as §1, §2, §3, §4, §5, §6

[1] = PK profile in SD rats (i.v. / oral gavage, plasma LC-MS); format: in vivo; details: female, rat; for Vd: read-out: Vdss
From the text: Method: SD rats from acceptable sources (N=3, female, 6-8 weeks, weighing 200-230 g, purchased from JH Laboratory Animal Co. LTD, SCXK (SH) 2017-0012 20170012001153) or beagles (N=3, not experimentally naive animals, female, weighing 6.55-8.62 kg, purchased from Beijing Marshall Biotech Co. Ltd., quality inspection number SCXK (BJ) 2016-0001 110318201100068072) were selected and administered, by intravenous injection or oral gavage (3 animals per route), corresponding doses of the test compound GEN1-117 or GEN1-284s (the sample for intravenous injection was dissolved in a solution of 10% DMSO, 10% Soltol HS15 and 80% PBS, and the sample for oral administration was dissolved in a 0.5% aqueous methylcellulose solution). Peripheral blood samples (150 μL) were taken (at 0, 0.083, 0.25, 0.5, 1, 2, 4, 8 and 24 h for the intravenous injection route; at 0, 0.25, 0.5, 1, 2, 4, 8 and 24 h for the oral injection route; into K2-EDTA anticoagulant tubes; centrifuged at 2000 g at 4 C for 5 min within 15 min), and plasma was separated and subjected to LC-MS analysis (LC-MS/MS-37, triple Quad 6500) using the conventional method with diclofenac as an internal standard. Mass spectrometry conditions: ESI cation, MRM detection:
HPLC conditions: mobile phase A: 0.1% FA in water, mobile phase B: 0.1% FA in ACN
Chromatography column: Waters ACQUITY UPLC HSS T3 (2.1×50 mm, 1.8 μm)
A test sample standard curve was prepared from 1, 2, 10, 30, 100, 300, 1000, 2700 and 3000 ng/mL (50% ACN in water), and 3 μL of standard-curve solution was mixed with 57 μL of same-species blank plasma. A test plasma sample (60 μL) was well mixed with 6 μL of 10% FA in water, and 30 μL of the mixture was taken and well mixed with 200 μL of the internal standard compound diclofenac (40 ng/mL in ACN). After the resulting mixture was vortexed and shaken for 1 min and centrifuged at 5800 rpm for 10 min, 100 μL of the supernatant was transferred to a new test plate, and 1 μL of solution was loaded on an LC-MS/MS system.

[2] = read-out: % of hERG inhibition, Cell 1
[3] = read-out: % of hERG inhibition, Cell 2
[4] = read-out: Mean % hERG inhibition
[5] = iv, 1 mg/kg, GEN1-117 dosed i.v. 1 mg/kg
[6] = iv, 1 mg/kg, GEN1-284s dosed i.v. 1 mg/kg, analyte = labelled compound
[7] = iv, GEN1-117 dosed i.v. 1 mg/kg
[8] = po, 10 mg/kg, GEN1-117 dosed p.o. 10 mg/kg
[9] = po, 10 mg/kg, GEN1-284s dosed p.o. 10 mg/kg, analyte = labelled compound
[10] = po, GEN1-284s dosed p.o. 10 mg/kg, analyte = labelled compound
[11] = iv, GEN1-284s dosed i.v. 1 mg/kg, analyte = labelled compound

SMILES: O=C(Cc1ccc2ncccc2c1)N1CCC(n2c(=O)[nH]c3cccc(C(F)(F)F)c32)CC1 [GEN1-117, 1-(1-(2-(Quinolin-6-yl)acetyl)piperidin-4-yl)-7-(trifluoromethyl)-1H-benzo[d]imidazol-2(3H)-one]
- inhibition at 0.1 µM (hERG; [2]): 3.84%
- inhibition at 0.1 µM (hERG; [3]): -0.21%
- inhibition at 0.1 µM (hERG; [4]): 1.81%
- inhibition at 0.3 µM (hERG; [2]): 3.95%
- inhibition at 10 µM (hERG; [2]): 12.8%
- inhibition at 10 µM (hERG; [3]): 19.3%
- inhibition at 10 µM (hERG; [4]): 16%
- inhibition at 30 µM (hERG; [2]): 12.8%
- inhibition at 30 µM (hERG; [3]): 19.3%
- inhibition at 30 µM (hERG; [4]): 16%
- Inhibitory activity against hERG (conclusion) (hERG ion channel): no significant inhibitory activity against hERG
- inhibition at 0.3 µM (hERG ion channel; [3]): 4.17%
- inhibition at 0.3 µM (hERG ion channel; [4]): 4.06%
- inhibition at 1 µM (hERG ion channel; [2]): 7.99%
- inhibition at 1 µM (hERG ion channel; [3]): 13.4%
- inhibition at 1 µM (hERG ion channel; [4]): 10.7%
- inhibition at 3 µM (hERG ion channel; [2]): 11%
- inhibition at 3 µM (hERG ion channel; [3]): 13.3%
- inhibition at 3 µM (hERG ion channel; [4]): 12.2%
- AUC(0-t) [1, 5]: 1.64 µg·h/mL
- half-life [1, 5]: 4.2 h
- AUC(0-t) [1, 6]: 1.51 µg·h/mL
- half-life [1, 6]: 4.16 h
- clearance [1, 7]: 0.62 L/h/kg
- Vd [1, 7]: 2.75 L/kg
- bioavailability ([1]; oral, GEN1-117 dosed p.o. 10 mg/kg vs i.v. 1 mg/kg): 2.6%
- AUC(0-t) [1, 8]: 0.423 µg·h/mL
- Cmax [1, 8]: 0.0428 µg/mL
- Tmax [1, 8]: 4 h
- half-life [1, 8]: 4.28 h
- AUC(0-t) [1, 9]: 14.6 µg·h/mL
- Cmax [1, 9]: 2.44 µg/mL
- Tmax [1, 9]: 2 h
- half-life [1, 9]: 3.82 h
- bioavailability [1, 10]: 96.3%

SMILES: O=C(Cc1ccc2ncccc2c1)N1CCC(n2c(=O)n(COP(=O)([O-])[O-])c3cccc(C(F)(F)F)c32)CC1.[Na+].[Na+] [GEN1-284 salt, (2-Oxo-3-(1-(2-(quinolin-6-yl)acetyl)piperidin-4-yl)-4-(trifluoromethyl)-2,3-dihydro-1H-benzo[d]imidazol-1-yl)methyl disodium phosphate]
- inhibition at 0.1 µM (hERG; [2]): 2.22%
- inhibition at 0.1 µM (hERG; [3]): 8.28%
- inhibition at 0.1 µM (hERG; [4]): 5.25%
- inhibition at 0.3 µM (hERG; [2]): 10.2%
- inhibition at 10 µM (hERG; [2]): 9.28%
- inhibition at 10 µM (hERG; [3]): 3.41%
- inhibition at 10 µM (hERG; [4]): 6.34%
- inhibition at 30 µM (hERG; [2]): 19.1%
- inhibition at 30 µM (hERG; [3]): 8.86%
- inhibition at 30 µM (hERG; [4]): 13.9%
- Inhibitory activity against hERG (conclusion) (hERG ion channel): no significant inhibitory activity against hERG
- inhibition at 0.3 µM (hERG ion channel; [3]): 2.25%
- inhibition at 0.3 µM (hERG ion channel; [4]): 6.24%
- inhibition at 1 µM (hERG ion channel; [2]): 2.88%
- inhibition at 1 µM (hERG ion channel; [3]): 0%
- inhibition at 1 µM (hERG ion channel; [4]): 1.44%
- inhibition at 3 µM (hERG ion channel; [2]): 0%
- inhibition at 3 µM (hERG ion channel; [3]): 2.66%
- inhibition at 3 µM (hERG ion channel; [4]): 1.33%
- AUC(0-t) [1, 11]: 2.75 µg·h/mL
- clearance [1, 11]: 0.374 L/h/kg
- half-life [1, 11]: 0.39 h
- Vd [1, 11]: 0.047 L/kg
- Tmax [1, 9]: 0.42 h
- AUC(0-t) [1, 10]: 0.00572 µg·h/mL
- Cmax [1, 10]: 0.00604 µg/mL
- half-life [1, 10]: 0.95 h
